According to US20260226071A1, “2, 4-DIANILINOPYRIMIDINE-BASED AURORA-A KINASE SELECTIVE DEGRADATION INDUCING COMPOUNDS” (UPPTHERA, INC., priority 2023, published 2026):

Legend:
Aurora kinase A (AURKA) = target: T1, Aurora kinase A (AURKA) (Homo sapiens, UniProt O14965); assay: Luciferase assay for AURKA in HeLa LgBit (AURKA-HiBit KI) cell line; format: cell-based; settings: HeLa LgBit (AURKA-HiBit KI) cells, measured after 12 hours
T1 construct: endogenous in cells; host or cells: HeLa LgBit (AURKA-HiBit KI), CRISPR/Cas9 knock-in at the endogenous AURKA locus
T1 sequence (O14965 1-403): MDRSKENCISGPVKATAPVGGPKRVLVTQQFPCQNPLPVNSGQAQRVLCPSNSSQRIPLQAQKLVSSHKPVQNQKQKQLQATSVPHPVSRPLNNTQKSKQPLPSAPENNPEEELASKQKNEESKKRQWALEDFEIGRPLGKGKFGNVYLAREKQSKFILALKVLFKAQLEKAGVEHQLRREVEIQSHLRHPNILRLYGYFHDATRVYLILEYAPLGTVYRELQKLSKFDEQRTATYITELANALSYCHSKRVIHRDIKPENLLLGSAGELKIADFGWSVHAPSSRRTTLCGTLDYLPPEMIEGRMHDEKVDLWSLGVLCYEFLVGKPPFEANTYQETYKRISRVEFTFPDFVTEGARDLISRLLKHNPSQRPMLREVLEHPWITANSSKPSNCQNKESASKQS
How it was run: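 HeLa cells stably expressing LgBit, with HiBit knocked in at the C-terminus of endogenous AURKA; 3×10^4 cells seeded, 18 h, then Endurazine substrate 2 h. Compounds tested at 10 nM or 100 nM; luminescence read at 470-480 nm after 12 h as real-time read-out.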

NCI-H446 cell line = assay: Cell viability assay for NCI-H446 cell line; format: cell-based; settings: Homo sapiens, NCI-H446, 120 h; H446 cells, 5 days culture, EZ-Cytox; read-out: IC50 value (Level)
How it was run: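 H446 cells seeded 24 h before treatment with compound in 3-fold dilutions, 1000 to 0.15 nM, then cultured 5 days at 37 °C, 5% CO2 in RPMI 1640/10% FBS. Viability read with EZ-Cytox (4 h) as absorbance at 450 nm.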

## O=C1CCC(c2ccc(N3CCN(CCC4CCN(NC(=O)c5ccc(Nc6ncc(F)c(Nc7ccc(C(=O)Nc8ccccc8Cl)cc7)n6)cc5)CC4)CC3)cn2)C(=O)N1 (stereo not drawn) [Compound 88, N-(2-chlorophenyl)-4-((2-((4-((4-(2-(4-(6-(2,6-dioxopiperidin-3-yl)pyridin-3-yl)piperazin-1-yl)ethyl)piperidin-1-yl)carbamoyl)phenyl)amino)-5-fluoropyrimidin-4-yl)amino)benzamide]
Aurora kinase A (AURKA); 10 nM compound
  luminescence value (Level): A (A is <0.3)
Aurora kinase A (AURKA); 100 nM compound
  luminescence value (Level): A (A is <0.2)
NCI-H446 cell line
  IC50: < 50 nM
